Results as given in the supplement of paper PMC10307832.

How the values were obtained:
Test in all cases: relative viability (nuclei count vs DMSO), 5 days (fraction); higher = more cells survive
[1] = compound: C#Cc1cccc(Nc2ncnc3cc(OCCOC)c(OCCOC)cc23)c1 [Erlotinib] + CS(=O)(=O)CCNCc1ccc(-c2ccc3ncnc(Nc4ccc(OCc5cccc(F)c5)c(Cl)c4)c3c2)o1 [Lapatinib] (partner 2 µM)
Outline: (§1)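 One day after seeding in 1536-well plates, lung cancer cell lines were dosed by pin tool. Dosing was either single-drug or a fixed anchor-drug dose plus five library-drug doses (not always all listed) in √10 steps. After 5 days, nuclei were stained in one fix-and-stain step and counted on 4× images, and relative viability is the nuclei count of treated wells over that of vehicle wells, given as the median of duplicate plates.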

[2] = compound: O=C(Nc1c[nH]nc1-c1nc2ccc(CN3CCOCC3)cc2[nH]1)NC1CC1 [AT9283] + CC(=O)c1c(C)c2cnc(Nc3ccc(N4CCNCC4)cn3)nc2n(C2CCCC2)c1=O [Palbociclib] (partner 0.5 µM)
Outline: as §1

[3] = compound: C#Cc1cccc(Nc2ncnc3cc(OCCOC)c(OCCOC)cc23)c1 [Erlotinib] + COc1cccc2cc(-c3nc([C@H]4CC[C@H](C(=O)O)CC4)n4ncnc(N)c34)[nH]c12 [OSI-027] (partner 0.5 µM)
Outline: as §1

[4] = compound: O=C(Nc1c[nH]nc1-c1nc2ccc(CN3CCOCC3)cc2[nH]1)NC1CC1 [AT9283] + CC(C)C[C@H](NC(=O)[C@H](Cc1ccccc1)NC(=O)c1cnccn1)B(O)O [Bortezomib] (partner 0.002 µM)
Outline: as §1

[5] = compound: C#Cc1cccc(Nc2ncnc3cc(OCCOC)c(OCCOC)cc23)c1 [Erlotinib] + CCNC(=O)c1noc(-c2cc(C(C)C)c(O)cc2O)c1-c1ccc(CN2CCOCC2)cc1 [Luminespib] (partner 0.01 µM)
Outline: as §1

| Cell Line | relative viability ([1]; first compound 0.02 µM) | relative viability ([1]; first compound 0.2 µM) | relative viability ([1]; first compound 0.6325 µM) | relative viability ([1]; first compound 2 µM) | relative viability ([2]; first compound 0.003 µM) | relative viability ([2]; first compound 0.03 µM) | relative viability ([2]; first compound 0.09487 µM) | relative viability ([2]; first compound 0.3 µM) | relative viability ([3]; first compound 0.02 µM) | relative viability ([3]; first compound 0.2 µM) | relative viability ([3]; first compound 0.6325 µM) | relative viability ([3]; first compound 2 µM) | relative viability ([4]; first compound 0.003 µM) | relative viability ([4]; first compound 0.03 µM) | relative viability ([4]; first compound 0.09487 µM) | relative viability ([4]; first compound 0.3 µM) | relative viability ([5]; first compound 0.02 µM) | relative viability ([5]; first compound 0.2 µM) | relative viability ([5]; first compound 0.6325 µM) | relative viability ([5]; first compound 2 µM) |
| --- | --- | --- | --- | --- | --- | --- | --- | --- | --- | --- | --- | --- | --- | --- | --- | --- | --- | --- | --- | --- |
| HCC-78 | 0.737 | 0.742 | 0.696 | 0.701 | 0.473 | 0.476 | 0.396 | 0.347 | 0.333 | 0.359 | 0.379 | 0.281 | 0.425 | 0.472 | 0.237 | 0.245 |  |  |  |  |
| HCC-366 | 1.08 | 1 | 1.33 | 1.09 | 0.373 | 0.309 | 0.157 | 0.101 | 0.969 | 0.805 | 0.468 | 0.438 | 1.02 | 0.921 | 0.129 | 0.0684 |  |  |  |  |
| LK-2 | 0.971 | 0.875 | 1.17 | 0.844 | 0.527 | 0.145 | 0.133 | 0.115 | 0.202 | 0.211 | 0.21 | 0.192 |  |  |  |  | 0.151 | 0.166 | 0.203 | 0.15 |
| NCI-H358 | 0.379 | 0.421 | 0.519 | 0.452 | 0.191 | 0.0774 | 0.0806 | 0.0739 | 0.82 | 0.458 | 0.407 | 0.152 |  |  |  |  | 0.262 | 0.225 | 0.31 | 0.12 |
| NCI-H1703 | 1.42 |  | 1.21 | 0.992 |  |  |  |  |  |  |  |  | 0.452 | 0.196 | 0.141 | 0.169 |  |  |  |  |
| Calu-6 | 1.12 |  | 1.1 | 0.979 |  |  |  |  |  |  |  |  | 0.956 | 0.297 | 0.272 | 0.254 |  |  |  |  |
| NCI-H2170 | 0.283 | 0.264 | 0.293 | 0.24 | 0.446 | 0.37 | 0.198 | 0.148 | 0.687 | 0.748 | 0.566 | 0.403 |  |  |  |  | 0.685 | 0.413 | 0.743 | 0.398 |
| SW 900 |  |  |  |  | 0.462 | 0.542 | 0.368 | 0.253 | 0.584 | 0.598 | 0.642 | 0.374 |  |  |  |  | 0.201 | 0.172 | 0.178 | 0.173 |
| EBC-1 | 0.23 | 0.19 | 0.221 | 0.22 |  |  |  |  |  |  |  |  | 0.526 | 0.239 | 0.172 | 0.169 |  |  |  |  |
| NCI-H2342 |  |  |  |  | 0.505 | 0.535 | 0.502 | 0.449 | 0.596 | 0.635 | 0.556 | 0.55 |  |  |  |  | 0.731 | 0.609 | 0.573 | 0.739 |
| NCI-H1299 | 0.994 | 0.995 | 0.904 |  |  |  |  |  |  |  |  |  | 1.07 | 1.02 | 0.437 | 0.395 |  |  |  |  |
| NCI-H1793 |  | 0.517 | 0.916 | 0.591 | 0.275 | 0.329 | 0.298 | 0.255 | 0.281 | 0.225 | 0.235 | 0.156 |  |  |  |  | 0.167 | 0.19 | 0.169 | 0.125 |
| NCI-H1944 | 0.79 | 0.65 | 1.05 | 0.816 | 0.336 | 0.241 | 0.188 | 0.172 | 0.413 | 0.355 | 0.291 | 0.269 |  |  |  |  | 0.813 | 0.471 | 0.609 | 0.434 |
| NCI-H1648 |  |  |  |  | 0.247 | 0.262 | 0.242 | 0.297 | 0.251 | 0.283 | 0.246 | 0.298 |  |  |  |  |  |  |  |  |
| NCI-H522 |  |  |  |  | 0.945 | 0.731 | 0.577 | 0.585 | 0.749 | 0.672 | 0.816 | 0.66 |  |  |  |  | 1.16 | 0.954 | 1.15 | 0.965 |
| ChaGo-K-1 |  |  |  |  | 0.931 | 0.761 | 0.295 | 0.212 | 0.695 | 0.55 | 0.549 | 0.434 | 0.889 | 0.908 | 0.356 | 0.303 | 0.635 | 0.541 | 0.604 | 0.505 |
| NCI-H1563 | 0.877 | 0.851 | 0.843 | 0.879 |  |  |  |  | 0.768 | 0.867 | 0.801 | 0.663 | 0.859 | 0.79 | 0.822 | 0.703 | 0.527 | 0.495 | 0.512 | 0.477 |
| NCI-H1623 |  |  |  |  |  |  |  |  | 0.398 | 0.366 | 0.297 | 0.256 |  |  |  |  | 0.414 | 0.425 | 0.352 | 0.336 |
| LCLC-103H |  |  |  |  | 0.362 | 0.494 | 0.423 | 0.371 | 0.537 | 0.469 | 0.43 | 0.417 | 1.08 | 0.935 | 0.641 | 0.538 | 0.99 | 0.884 | 1.05 | 0.821 |
| A549 | 0.957 | 0.979 | 1.06 | 0.94 |  |  |  |  |  |  |  |  |  |  |  |  |  |  |  |  |
| IA-LM | 1.14 | 0.712 | 1.43 | 0.73 |  |  |  |  |  |  |  |  | 0.748 | 0.367 | 0.112 | 0.0951 |  |  |  |  |
| NCI-H1395 |  | 1.11 | 1.02 | 0.961 | 0.597 | 0.598 | 0.397 | 0.305 | 0.677 | 0.712 | 0.615 | 0.629 |  |  |  |  | 0.919 | 0.613 | 0.676 | 0.671 |
| SK-MES-1 | 0.511 | 0.452 | 0.476 | 0.434 | 0.365 | 0.311 | 0.255 | 0.2 | 0.615 | 0.415 | 0.356 | 0.221 |  |  |  |  | 0.77 | 0.453 | 0.486 | 0.461 |
